From ChEMBL document CHEMBL1132622, “Synthesis, structure-activity relationships, and in vivo evaluations of substituted di-tert-butylphenols as a novel class of potent, selective, and orally active cyclooxygenase-2 inhibitors. 2. 1,3,4- and 1,2,4-thiadiazole series” (J Med Chem, 1999)

target: T1, Prostaglandin G/H synthase 1 (Ovis aries) (UniProt P05979); assay: IC50 value against ovine Prostaglandin G/H synthase 1 at 30 uM
T1 sequence (whole entry): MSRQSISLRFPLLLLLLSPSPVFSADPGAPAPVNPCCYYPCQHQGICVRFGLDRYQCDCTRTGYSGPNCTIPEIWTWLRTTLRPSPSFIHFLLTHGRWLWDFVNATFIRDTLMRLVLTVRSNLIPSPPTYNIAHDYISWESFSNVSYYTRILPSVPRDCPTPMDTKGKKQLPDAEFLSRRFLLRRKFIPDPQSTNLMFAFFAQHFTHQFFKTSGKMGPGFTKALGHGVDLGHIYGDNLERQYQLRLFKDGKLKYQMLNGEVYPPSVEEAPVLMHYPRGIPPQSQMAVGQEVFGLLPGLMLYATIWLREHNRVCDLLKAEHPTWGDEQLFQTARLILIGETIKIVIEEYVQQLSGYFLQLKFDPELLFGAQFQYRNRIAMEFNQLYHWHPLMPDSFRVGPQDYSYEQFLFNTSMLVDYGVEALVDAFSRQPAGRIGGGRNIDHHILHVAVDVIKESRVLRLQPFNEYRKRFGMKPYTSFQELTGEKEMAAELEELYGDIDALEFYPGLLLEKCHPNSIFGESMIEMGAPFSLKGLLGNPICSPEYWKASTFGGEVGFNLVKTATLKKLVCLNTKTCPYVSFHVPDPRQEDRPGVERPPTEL

Row | inhibition [%] | SMILES
1 | 16 | CC(C)(C)c1cc(-c2nnc(N=C(N)N)o2)cc(C(C)(C)C)c1O
2 | 34 | CC(C)(C)c1cc(-c2nnc(N)s2)cc(C(C)(C)C)c1O

target: T2, Prostaglandin G/H synthase 2 (Homo sapiens) (UniProt P35354); assay: IC50 value against recombinant human Prostaglandin G/H synthase 2 at 10 uM
T2 sequence (whole entry): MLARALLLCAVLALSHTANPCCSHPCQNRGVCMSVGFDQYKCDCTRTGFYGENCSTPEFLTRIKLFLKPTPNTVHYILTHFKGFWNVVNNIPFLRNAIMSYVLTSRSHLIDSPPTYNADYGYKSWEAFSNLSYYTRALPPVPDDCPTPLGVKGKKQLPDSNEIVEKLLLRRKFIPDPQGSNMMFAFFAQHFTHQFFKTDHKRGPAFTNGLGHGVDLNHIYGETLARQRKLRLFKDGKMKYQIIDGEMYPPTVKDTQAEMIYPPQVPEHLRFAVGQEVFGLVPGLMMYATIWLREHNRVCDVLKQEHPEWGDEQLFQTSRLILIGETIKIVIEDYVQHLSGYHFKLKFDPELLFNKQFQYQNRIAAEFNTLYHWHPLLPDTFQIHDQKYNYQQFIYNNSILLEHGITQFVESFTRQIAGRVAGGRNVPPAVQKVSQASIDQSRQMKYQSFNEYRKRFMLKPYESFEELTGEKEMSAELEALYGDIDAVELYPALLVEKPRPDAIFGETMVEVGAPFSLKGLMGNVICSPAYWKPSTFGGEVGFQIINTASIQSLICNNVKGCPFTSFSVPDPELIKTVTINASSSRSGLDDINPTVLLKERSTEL

Row | inhibition [%] | SMILES
3 | 14 | CSc1nnc(-c2cc(C(C)C)c(O)c(C(C)C)c2)s1
4 | 20 | CSc1nc(-c2cc(C(C)(C)C)c(O)c(C(C)(C)C)c2)ns1

target: Prostaglandin G/H synthase 1 (Homo sapiens, UniProt P23219); assay: IC50 value against Prostaglandin G/H synthase 1 of human platelet rich plasma; format: cell-free
Sequence (P23219 whole entry): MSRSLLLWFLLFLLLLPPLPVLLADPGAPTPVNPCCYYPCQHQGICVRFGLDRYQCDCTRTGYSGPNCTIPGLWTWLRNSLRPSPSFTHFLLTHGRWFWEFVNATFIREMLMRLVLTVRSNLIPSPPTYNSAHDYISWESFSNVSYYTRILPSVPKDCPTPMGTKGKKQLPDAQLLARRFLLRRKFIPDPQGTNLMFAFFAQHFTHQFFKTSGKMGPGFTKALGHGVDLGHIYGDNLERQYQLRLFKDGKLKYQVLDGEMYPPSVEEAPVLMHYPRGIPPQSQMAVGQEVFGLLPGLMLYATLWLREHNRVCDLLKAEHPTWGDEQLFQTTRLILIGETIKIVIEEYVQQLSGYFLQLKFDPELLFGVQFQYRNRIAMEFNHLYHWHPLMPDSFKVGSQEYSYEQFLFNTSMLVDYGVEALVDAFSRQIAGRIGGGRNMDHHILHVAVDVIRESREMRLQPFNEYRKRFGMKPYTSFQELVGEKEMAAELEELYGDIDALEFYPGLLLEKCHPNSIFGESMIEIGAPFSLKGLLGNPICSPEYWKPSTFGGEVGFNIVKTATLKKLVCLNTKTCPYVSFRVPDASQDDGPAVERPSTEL

Row | IC50 [nM] | SMILES
5 | 2800 | CC(C)(C)c1cc(-c2nnc(N=C(N)N)o2)cc(C(C)(C)C)c1O
6 | 1200 | CC(C)(C)c1cc(-c2nsc(NC#N)n2)cc(C(C)(C)C)c1O
7 | 530 | CC(C)(C)c1cc(-c2nnc(N)s2)cc(C(C)(C)C)c1O
8 | 3600 | CSc1nc(-c2cc(C(C)(C)C)c(O)c(C(C)(C)C)c2)ns1
9 | 3600 | CC(C)(C)c1cc(-c2nnc(NC#N)s2)cc(C(C)(C)C)c1O

Row | SMILES | IC50 [nM]
10 | CCSc1nnc(-c2nc(C(C)(C)C)c(O)c(C(C)(C)C)n2)s1 | 680

species: Rattus norvegicus; assay: Percentage of gastric damage was measured in rats.; format: functional, Stomach

Row | SMILES | Damaged area [%]
11 | CC(C)(C)c1cc(-c2nsc(NC#N)n2)cc(C(C)(C)C)c1O | 4.91
12 | CS(=O)(=O)c1ccc(-n2nc(C(F)(F)F)cc2-c2ccc(F)cc2)cc1 [SC-58125] | 0
13 | CC(C)(C)c1cc(-c2nnc(NC#N)s2)cc(C(C)(C)C)c1O | 0.02

target: T1, Prostaglandin G/H synthase 1 (Ovis aries); assay: IC50 value against ovine Prostaglandin G/H synthase 1 at 10 uM

Row | inhibition [%] | SMILES
14 | 25 | CSc1nnc(-c2cc(C(C)C)c(O)c(C(C)C)c2)s1
15 | 16 | CSc1nc(-c2cc(C(C)(C)C)c(O)c(C(C)(C)C)c2)ns1

Row | SMILES | inhibition [%]
16 | CCSc1nnc(-c2nc(C(C)(C)C)c(O)c(C(C)(C)C)n2)s1 | 39

species: Rattus norvegicus; assay: ED50 was measured by hyperalgesia assay method.; format: functional

Row | SMILES | ED50 [mg/kg]
17 | CC(C)(C)c1cc(-c2nsc(NC#N)n2)cc(C(C)(C)C)c1O | 0.2
18 | CS(=O)(=O)c1ccc(-n2nc(C(F)(F)F)cc2-c2ccc(F)cc2)cc1 [SC-58125] | 0.3
19 | CC(C)(C)c1cc(-c2nnc(NC#N)s2)cc(C(C)(C)C)c1O | 1.3

species: Rattus norvegicus; assay: ED50 was measured by CFE assay method.; format: functional

Row | SMILES | ED50 [mg/kg]
20 | CC(C)(C)c1cc(-c2nsc(NC#N)n2)cc(C(C)(C)C)c1O | 5.8
21 | CS(=O)(=O)c1ccc(-n2nc(C(F)(F)F)cc2-c2ccc(F)cc2)cc1 [SC-58125] | > 30
22 | CC(C)(C)c1cc(-c2nnc(NC#N)s2)cc(C(C)(C)C)c1O | 7.7

species: Rattus norvegicus; assay: Lesion frequency was measured in rats.; format: functional

Row | SMILES | Lesion frequency [%]
23 | CC(C)(C)c1cc(-c2nsc(NC#N)n2)cc(C(C)(C)C)c1O | 87.5
24 | CS(=O)(=O)c1ccc(-n2nc(C(F)(F)F)cc2-c2ccc(F)cc2)cc1 [SC-58125] | 0
25 | CC(C)(C)c1cc(-c2nnc(NC#N)s2)cc(C(C)(C)C)c1O | 12.5

target: T3, Prostaglandin G/H synthase 2 (Mus musculus, UniProt Q05769)
T3 sequence (Q05769 whole entry): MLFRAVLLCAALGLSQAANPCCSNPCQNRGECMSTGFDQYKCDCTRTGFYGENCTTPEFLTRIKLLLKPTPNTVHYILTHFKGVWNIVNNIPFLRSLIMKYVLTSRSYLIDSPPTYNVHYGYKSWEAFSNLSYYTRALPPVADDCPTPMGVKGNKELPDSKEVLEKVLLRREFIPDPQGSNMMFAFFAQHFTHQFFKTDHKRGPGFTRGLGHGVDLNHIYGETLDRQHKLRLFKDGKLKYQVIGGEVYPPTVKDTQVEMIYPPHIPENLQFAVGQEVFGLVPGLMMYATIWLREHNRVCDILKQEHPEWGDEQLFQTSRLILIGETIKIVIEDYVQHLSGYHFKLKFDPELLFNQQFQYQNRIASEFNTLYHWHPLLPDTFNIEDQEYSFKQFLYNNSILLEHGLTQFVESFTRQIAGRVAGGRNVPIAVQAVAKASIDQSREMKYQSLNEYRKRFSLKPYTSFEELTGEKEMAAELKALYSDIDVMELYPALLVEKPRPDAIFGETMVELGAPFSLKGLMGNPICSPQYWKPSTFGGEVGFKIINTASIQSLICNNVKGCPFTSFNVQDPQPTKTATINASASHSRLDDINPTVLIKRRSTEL

Row | IC50 [nM] | SMILES
26 | > 20000 | CSc1nnc(-c2cc(C(C)C)c(O)c(C(C)C)c2)s1
27 | 330 | CC(C)(C)c1cc(-c2nnc(N=C(N)N)o2)cc(C(C)(C)C)c1O
28 | 26 | CC(C)(C)c1cc(-c2nsc(NC#N)n2)cc(C(C)(C)C)c1O
29 | 110 | CC(C)(C)c1cc(-c2nnc(N)s2)cc(C(C)(C)C)c1O
30 | 260 | CSc1nc(-c2cc(C(C)(C)C)c(O)c(C(C)(C)C)c2)ns1

Row | SMILES | IC50 [nM]
31 | CCSc1nnc(-c2nc(C(C)(C)C)c(O)c(C(C)(C)C)n2)s1 | 18

target: T4, Prostaglandin G/H synthase 2 (Homo sapiens, UniProt P35354); assay: Inhibition of recombinant human prostaglandin G/H synthase 2 (COX-2)
T4 sequence (P35354 whole entry): T2 sequence (whole entry)

Row | IC50 [nM] | SMILES
32 | 23000 | CC(C)(C)c1cc(-c2nnc(N=C(N)N)o2)cc(C(C)(C)C)c1O
33 | 47 | CC(C)(C)c1cc(-c2nsc(NC#N)n2)cc(C(C)(C)C)c1O
34 | 3500 | CC(C)(C)c1cc(-c2nnc(N)s2)cc(C(C)(C)C)c1O
35 | > 20000 | CC(C)(C)c1cc(-c2nnc(NC#N)s2)cc(C(C)(C)C)c1O

Row | SMILES | IC50 [nM]
36 | CCSc1nnc(-c2nc(C(C)(C)C)c(O)c(C(C)(C)C)n2)s1 | 2000

species: Rattus norvegicus; assay: Percentage inhibition of the prostaglandin synthesis was measured in rats.; format: functional

Row | SMILES | Inhibition [%]
37 | CC(C)(C)c1cc(-c2nsc(NC#N)n2)cc(C(C)(C)C)c1O | 87.7
38 | CS(=O)(=O)c1ccc(-n2nc(C(F)(F)F)cc2-c2ccc(F)cc2)cc1 [SC-58125] | -1.58
39 | CC(C)(C)c1cc(-c2nnc(NC#N)s2)cc(C(C)(C)C)c1O | 22

target: T3, Prostaglandin G/H synthase 2; assay: IC50 value against Prostaglandin G/H synthase 2 of murine J774A.1 cell line

Row | IC50 | SMILES
40 | Not Active | CC(C)(C)c1cc(-c2nnc(NC#N)s2)cc(C(C)(C)C)c1O

target: T5, Prostaglandin G/H synthase 1 (Ovis aries, UniProt P05979); assay: IC50 value against ovine Prostaglandin G/H synthase 1
T5 sequence (P05979 whole entry): T1 sequence (whole entry)

Row | IC50 [nM] | SMILES
41 | 32000 | CC(C)(C)c1cc(-c2nsc(NC#N)n2)cc(C(C)(C)C)c1O
42 | > 20000 | CC(C)(C)c1cc(-c2nnc(NC#N)s2)cc(C(C)(C)C)c1O
